Source: patent US11730707B2, “Compounds for treating von Hippel-Lindau disease” (CONSEJO SUPERIOR DE INVESTIGACIONES CIENTÍFICAS, priority 2017, dated 2023)
“Also recorded” adds a separate entry of the source. Structures can show the parent of a compound that is named as a salt.

Legend:
[1] = test system: VHL-derived hemangioblastoma cells (hemangiospheres); assay: Hemangiospheres formation and culture; assay type: cell-based, human; conditions: 100 μM, 7 days
Description: VHL-derived hemangioblastoma cells were grown in suspension in phenol red free DMEM:F-12 medium with GlutaMAX, supplemented with B27, 20 ng/ml EGF, 20 ng/ml bFGF and 1% penicillin/streptomycin at 37° C. in 5% CO2. Single cell suspensions were plated at a density of 50.000 cells/ml in 75 cm^2 ultralow attachment flasks (Corning).

HUVECs tubulogenesis = assay: Tube formation assay on Matrigel; assay type: cell-based, human; conditions: 100 μM, 3 hours
Source text: FIG. 6. […] Tubulogenesis is another in vitro test for angiogenesis. Endothelial cells cultured on matrigel have the property of building cell tube-like structures, which mimic the “vessels” structure. […] B. The number of closed cells (density network) is quantified and averaged from 5 different fields in each case. Bar histograms represent the mean±SD.
(§1) In vitro-scratched wounds were created by scraping confluent HUVEC-1 monolayers in P-24 plate wells with sterile disposable pipet tips.

[2] = test system: primary cultures hemangioblastomas from patients (Vhl−/−); assay: Cell viability measure (CellTiter-Glo); assay type: cell-based, human; conditions: for viability (ATP content) of the VHL−/− cells: 72 hours, hemangioblastoma primary cultures 18, 14 and 786-O vs HUVEC, HMEC (FIG. 9)
Description: (§2) Cell viability (cell proliferation, ATP content) was determined using the CellTiter-Glo Luminescent Cell Viability Assay kit (Promega) according to the supplier's instructions. […] Cell lysis was induced in an orbital shaker for 2 min, and then plates were incubated at room temperature for 10 min to stabilize the luminescent signal. Luminescence was measured using a GlomaxMultidetection System (Promega) Readings were normalized to control (100%).

[3] = test system: 786-O Vhl−/− ccRCC xenograft; assay type: in vivo; conditions: 10 mg/Kg daily intraperitoneally; 50-60 days after the cell inoculation
Description: FIG. 10. Xenografts of 786-O Vhl−/− human ccRCC cells in mice. Male 7-8 weeks old NOD scid gamma (NSG) mice were injected in the dorsal flank with a single cell suspension of 10^6 786-O cells. When tumor size reached 100 mm3 volume, mice were randomly divided in 3 groups, of 9/10 mice each. […] Tumor size was measured by a caliper every 2-3 days and volumes were calculated following the formula: shortest^2×largest×0.52. Mice were sacrificed when tumor volume average of the control group reached an end point established based on ethical procedures. Arrow marks the beginning of the treatment.
Male 7-8 weeks old NOD scid gamma (NSG) mice were injected in the dorsal flank with a single cell suspension of […] 786-O cells. When tumor size reached 100 mm^3 volume, mice were randomly divided in 3 groups, of 9/10 mice each. […] Tumor size was measured by a caliper every 2-3 days and volumes were calculated following the formula: shortest 2×largest×0.52. Mice were sacrificed when tumor volume average of the control group reached an end point established according to ethical procedures

HUVEC migration = assay: Wound healing assay; assay type: cell-based, human; conditions: 100 μM, 6 hours
Description: FIG. 5. […] A. Functional in vitro tests for angiogenesis include “wound-healing” or plate-scratch, to follow the migration capacity of endothelial cells after short times. When a confluent monolayer is disrupted with the tip of a micropipette to create a discontinuity, endothelial cells normally migrate to cover the discontinuity “wound the healing” in a short time, depending on the size of the “wound” but normally, less than 8 hours. This test measures the migration by taking pictures at different times from the moment the wound is created. Only the final picture after 6 hours is shown. The migrated distance is quantified, and in the following graph the evolution is shown.
as §1

[4] = test system: HIF transcriptional activity in HeLa 9XHRE cells; assay: HRE-luciferase reporter assay under DFO chemical hypoxia; assay type: cell-based, human; conditions: for luciferase activity induced by hypoxia (HIF transcriptional activity): 100 μM, 100 μM DFO
Source text: Angiogenesis is largely dependent of HIF transcription program, triggered in the presence of hypoxic condition, or as in the case of Von Hippel Lindau haemangioblastoma cells, due to the lack of VHL protein in charge of targeting HIF protein for its proteasome processing under normoxic conditions in wild type cells. A special peculiarity of hemangioblastoma cells, and clear cell kidney carcinoma cells, is that they constitutively express HIF protein, which is active, and is translocated to nucleus where it may bind and activates its gene targets such as: VEGF, PDGF, EPO, endoglin, several metalloproteases, carbonic anhydrase, Glut-1 and so on.

retina hemangioblastomas = conditions: cited from earlier work
[5] = test system: β2-adrenergic receptor over β1-adrenergic receptor; conditions: reported in literature; cited from earlier work
[6] = test system: BAX and CASP9 mRNA in hemangioblastoma cells; assay: Real-time RT-PCR of proapoptotic genes; assay type: cell-based, human; conditions: 100 μM, 72 h; HB26 and HB11 hemangioblastoma cell culture
Description: Total cellular RNA was extracted from hemangioblastoma cells using a Nucleo Spin RNA kit (Macherey-Nagel, Düren, Germany). One microgram of total RNA was reverse-transcribed in a final volume of 20 μl with the First Strand cDNA Synthesis Kit (Roche, Mannheim, Germany) using random primers. SYBR Green PCR system (BioRad, Hercules, Calif., USA) was used to carry out real-time PCR with an iQ5 system. Primers used for qPCR were: […]

HUVEC = assay: Cell viability measure (CellTiter-Glo); assay type: cell-based, human
Description: as §2, with “Endothelial cell lines (HUVECs and HMECs), human ccRCC Vhl−/− 786-O cell line, and primary cultures hemangioblastomas from patients (Hb14 and 18) were seeded in triplicate onto a 96-well plate (2×10^3 per well). […] Cell viability” for “Cell viability”

HMEC = assay: Cell viability measure (CellTiter-Glo); assay type: cell-based, human
Description: as §2, with “Endothelial cell lines (HUVECs and HMECs), human ccRCC Vhl−/− 786-O cell line, and primary cultures hemangioblastomas from patients (Hb14 and 18) were seeded in triplicate onto a 96-well plate (2×10^3 per well). […] Cell viability” for “Cell viability”

[7] = test system: hemangioblastoma primary cell cultures from VHL patients; conditions: both at 100 μM, 72 hours
Description: HeLa 9XHRE cells were stably transfected with a HREluc reporter carrying nine copies in tandem of the hypoxia responsive element (HRE) followed by luciferase gene, and were cultured in DMEM (Dulbecco's Modified Eagle Medium, Gibco, Grand Island, N.Y., USA) supplemented with 10% fetal bovine serum (FBS; Gibco). To induce hypoxic conditions, HeLa cells were cultured with 100 μM desferrioxamine (DFO) (chemical hypoxia). […] Primary cultures of CNS hemangioblastoma were obtained according to the previously described by Albiñana et al., Orphanet J Rare Diseases, 2015, 10: 118.
The viability of hemangioblastoma and HeLa 9XHRE cells was measured with a CellTiter-Glo Luminescent Cell Viability Assay (Promega, Madison, Wis., USA). This is a homogeneous method to determine the number of viable cells in culture based on quantitation of the ATP present, which signals the presence of metabolically active cells. […] After treatment, plates were equilibrated to room temperature for 30 min before the addition of 100 μl of Cell Titer-Glo reagent (Lysis buffer, Ultra-Glo Recombinant Luciferase, Luciferine and Mg2+). Luminescence was measured using a Glomax Multidetection System (Promega).

[8] = test system: human ccRCC Vhl−/− 786-O cell line; assay: Cell viability measure (CellTiter-Glo); assay type: cell-based; conditions: 72 hours, 0 to 250 μM
Description: as §2, with “Endothelial cell lines (HUVECs and HMECs), human ccRCC Vhl−/− 786-O cell line, and primary cultures hemangioblastomas from patients (Hb14 and 18) were seeded in triplicate onto a 96-well plate (2×10^3 per well). […] Cell viability” for “Cell viability”

CC(C)NCC(O)COc1cccc2ccccc12 (stereo not shown) [Propranolol]
hemangiosphere formation [1]: hemangiospheres are disrupted; also recorded: the spheres appear disaggregated | tubulogenesis (number of closed structures) (HUVECs tubulogenesis): dramatically decreased; also recorded: significantly inhibit the tubulogenesis | viability (ATP content) of the VHL−/− cells [2]: decrease, in a dose-dependent manner and with higher specificity | decrease of the size tumor versus vehicle treated mice [3]: around 30% | cell migration (closure of the discontinuity) (HUVEC migration): delay the closure of the discontinuity; also recorded: delay cell migration | luciferase activity induced by hypoxia (HIF transcriptional activity) [4]: dampened; also recorded: prevented hypoxia stimulation | luciferase activity induced by hypoxia (HIF transcriptional activity) ([4]; listed as propranolol): extremely reduced | tumor growth during the clinical trial (retina hemangioblastomas; 120 mg a day, 12 months, 7 VHL patients): did not grow in any case | visual acuity (retina hemangioblastomas; 120 mg a day, 12 months): in some cases visual acuity increased | side effect (retina hemangioblastomas; 120 mg a day): Low blood pressure | exudates from the hemangioblastomas (retina hemangioblastomas; 2 cases, between 3 and 6 months of treatment): disappeared completely

COc1ccc(OC)c(C(O)C(C)NC(C)(C)C)c1 (racemic) [butoxamine, DL-erythro-α-(2,5-dimethoxyphenyl)-β-t-butyl aminopropanol hydrochloride]
β2/β1 selectivity ratio [5]: at least 17

CC(C)NCC(O)COc1ccc(CC(N)=O)cc1 (stereo not shown) [Atenolol]
luciferase activity induced by hypoxia (HIF transcriptional activity) [4]: less significant | luciferase activity induced by hypoxia (HIF transcriptional activity) ([4]; listed as atenolol): hardly reduced the hypoxia stimulation

Cc1ccc(OCC(O)C(C)NC(C)C)c2c1CCC2 [ICI 118,551, erythro-D,L-1(methylinden-4-yloxy)-3-isopropylaminobutan-2-ol]
hemangiosphere formation [1]: hemangiospheres are disrupted; also recorded: the spheres appear disaggregated | Bax mRNA expression (RT-qPCR) [6]: significantly upregulated; also recorded: increased | Caspase 9 mRNA expression (RT-qPCR) [6]: significantly upregulated; also recorded: increased | decrease in viability (HUVEC; 100 μM (FIG. 11)): 80% | LD50 (HUVEC; 72 hours, 0 to 250 μM): around 150 μM | decrease in viability (HMEC; HMEC-1, 100 μM (FIG. 11)): 55% | LD50 (HMEC; HMEC, 72 hours, 0 to 250 μM): around 150 μM | tubulogenesis (number of closed structures) (HUVECs tubulogenesis): dramatically decreased; also recorded: significantly inhibit the tubulogenesis | effect on viability compared with propranolol [7]: superior to propranolol | viability (ATP content) of the VHL−/− cells [2]: decrease, in a dose-dependent manner and with higher specificity | viability at 100 µM ([2]; Homo sapiens, Haemangioblastoma (HB) cells, 100 μM (FIG. 11)): 20% | decrease of the size tumor versus vehicle treated mice [3]: around 30% | LD50 [8]: 100 µM | β2/β1 selectivity ratio [5]: at least 50 | cell migration (closure of the discontinuity) (HUVEC migration): delay the closure of the discontinuity; also recorded: delay cell migration | luciferase activity induced by hypoxia (HIF transcriptional activity) [4]: reduced practically to “0” | luciferase activity induced by hypoxia (HIF transcriptional activity) ([4]; listed as ICI): prevented hypoxia stimulation | luciferase activity induced by hypoxia (HIF transcriptional activity) ([4]; listed as ICI118,551): extremely reduced | hypoxia stimulation induced by DFO (relative luciferase activity) ([4]; 50 or 100 μMolar, 24 h, DFO 100 μMolar simultaneously): inhibits the hypoxia stimulation induced by DFO | effect on HIF luciferase activity compared with propranolol ([4]; equal dose): clearly superior to propranolol
